Data as given in ChEMBL document CHEMBL4359916, “Design, synthesis and biological evaluation of 1-benzyl-5-oxopyrrolidine-2-carboximidamide derivatives as novel neuroprotective agents” (Eur J Med Chem, 2019).
Active and inactive are the calls of the source. No cut-off for these calls is given here.

Columns and labels:
[1] = tested on: SH-SY5Y; assay: Neuroprotective activity against NMDA-induced cell damage in human SH-SY5Y cells assessed as cell viability at 5 uM preincubated for 8 hrs followed by NMDA addition and further incubated for 30 mins and measured after 12 hrs by MTT assay relative to control; format: functional; conditions: read-out: Activity
[2] = tested on: SH-SY5Y; assay: Neuroprotective activity against NMDA-induced cell damage in human SH-SY5Y cells assessed as cell viability at 0.5 uM preincubated for 8 hrs followed by NMDA addition and further incubated for 30 mins and measured after 12 hrs by MTT assay relative to control; format: functional; conditions: read-out: Activity
[3] = tested on: SH-SY5Y; assay: Neuroprotective activity against NMDA-induced cell damage in human SH-SY5Y cells assessed as cell viability at 0.05 uM preincubated for 8 hrs followed by NMDA addition and further incubated for 30 mins and measured after 12 hrs by MTT assay relative to control; format: functional; conditions: read-out: Activity
[4] = tested on: Mus musculus; assay: Improvement in spatial memory impairment in C57BL/6 mouse model of bilateral common carotid artery occlusion-induced brain ischemia assessed as increase in number of virtual platform crossing at 10 to 50 mg/kg/day, po via gavage at 24 hrs post surgery and 1 hr prior to the test measured on day 14 to 17 by Morris water maze test; format: functional, organism-based
[5] = tested on: Mus musculus; assay: Memory enhancement effect in C57BL/6 mouse model of bilateral common carotid artery occlusion-induced brain ischemia assessed as increase in preferential index at 50 mg/kg/day, po via gavage after 24 hrs post surgery measured on day 9 to 12 after 1 hr by novel object recognition test; format: functional, organism-based
[6] = tested on: Mus musculus; assay: Improvement in spatial memory impairment in C57BL/6 mouse model of bilateral common carotid artery occlusion-induced brain ischemia at 50 mg/kg/day, po via gavage at 24 hrs post surgery after day 17; format: functional, organism-based
[7] = Clearance in human liver microsomes at 10 uM preincubated for 10 mins followed by addition of NADPH and measured for 5 to 60 mins; format: ADME, Microsome
[8] = tested on: Mus musculus; assay: Improvement in spatial memory impairment in C57BL/6 mouse model of bilateral common carotid artery occlusion-induced brain ischemia assessed as increase in swimming distance at 10 to 50 mg/kg/day, po via gavage at 24 hrs post surgery and 1 hr prior to the test measured on day 14 to 17 by Morris water maze test; format: functional, organism-based
[9] = tested on: Mus musculus; assay: Improvement in spatial memory impairment in C57BL/6 mouse model of bilateral common carotid artery occlusion-induced brain ischemia at 50 mg/kg/day, po via gavage at 24 hrs post surgery measured on day 9 to 12 by novel object recognition test; format: functional, organism-based
[10] = tested on: Mus musculus; assay: Memory enhancement effect in C57BL/6 mouse model of bilateral common carotid artery occlusion-induced brain ischemia assessed as increase in discrimination index at 50 mg/kg/day, po via gavage 24 hrs post surgery measured on day 9 to 12 after 24 hrs by novel object recognition test; format: functional, organism-based
[11] = tested on: Mus musculus; assay: Cognitive enhancing effect in C57BL/6 mouse model of bilateral common carotid artery occlusion-induced brain ischemia at 50 mg/kg/day, po via gavage at 24 hrs post surgery after day 17; format: functional, organism-based
[12] = tested on: Mus musculus; assay: Improvement in spatial memory impairment in C57BL/6 mouse model of bilateral common carotid artery occlusion-induced brain ischemia assessed as decrease in escape latency at 10 to 50 mg/kg/day, po via gavage at 24 hrs post surgery and 1 hr prior to the test measured on day 14 to 17 by Morris water maze test; format: functional, organism-based
[13] = tested on: SH-SY5Y; assay: Neuroprotective activity in human SH-SY5Y cells assessed as reduction in NMDA-induced NR2B upregulation preincubated for 6 hrs followed by NMDA addition and further incubated for 30 mind and measured after 4 hrs by Western blot analysis; format: functional, cell-based
[14] = tested on: Mus musculus; assay: Improvement in spatial memory impairment in C57BL/6 mouse model of bilateral common carotid artery occlusion-induced brain ischemia assessed as increase in time spent in correct quadrant at 10 to 50 mg/kg/day, po via gavage at 24 hrs post surgery and 1 hr prior to the test measured on day 14 to 17 by Morris water maze test; format: functional, organism-based
[15] = molecular target: T1, Glutamate [NMDA] receptor (Homo sapiens) (UniProt Q05586+Q12879+Q13224+O15399+O60391+Q14957+Q8TCU5); assay: Antagonist activity at NMDA receptor in human SH-SY5Y cells assessed as reduction in NMDA-stimulated calcium ion influx at 5 uM measured after 3 hrs by Fluo-3 AM indicator based laser scanning confocal microscopy analysis; format: cell-based
[16] = tested on: Mus musculus; assay: Improvement in visual recognition effect in C57BL/6 mouse model of bilateral common carotid artery occlusion-induced brain ischemia at 50 mg/kg/day, po via gavage at 24 hrs post surgery measured on day 9 to 12 by novel object recognition test; format: functional, organism-based
[17] = tested on: Mus musculus; assay: Cognitive enhancing effect in C57BL/6 mouse model of bilateral common carotid artery occlusion-induced brain ischemia assessed as increase in spontaneous alternation behavior at 10 to 50 mg/kg/day, po via gavage at 24 hrs post surgery on day 8 after 1 hr drug administration by Y-maze test; format: functional, organism-based
[18] = molecular target: T1, Glutamate [NMDA] receptor (Homo sapiens); assay: Inhibition of NMDA receptor in NMDA-induced human SH-SY5Y cells assessed as increase in phosphorylated ERK1/2 level preincubated for 6 hrs followed by NMDA addition and further incubated for 30 mind and measured after 4 hrs by Western blot analysis; format: cell-based
[19] = Half-life in human liver microsomes at 10 uM preincubated for 10 mins followed by addition of NADPH and measured for 5 to 60 mins; format: ADME, Microsome
[20] = Metabolic stability in human liver microsomes assessed as parent compound remaining at 10 uM measured after 60 mins; format: ADME, Microsome; conditions: read-out: Stability
[21] = tested on: Mus musculus; assay: Cognitive enhancing effect in C57BL/6 mouse model of bilateral common carotid artery occlusion-induced brain ischemia assessed as effect on total arm entries at 10 to 50 mg/kg/day, po via gavage at 24 hrs post surgery on day 8 after […] of drug administration by Y-maze test; format: functional, organism-based

SMILES	viability at 5 µM [1]	viability at 0.5 µM [2]	viability at 0.05 µM [3]	other results
COc1ccc(CNC(=N)[C@@H]2CCC(=O)N2Cc2ccc([N+](=O)[O-])cc2)cc1	35.2%	25.4%	14.3%	
N=C(NCc1ccc(O)cc1)[C@@H]1CCC(=O)N1Cc1ccccc1	37.6%	35.4%	19.8%	
COc1ccc(CNC(=N)[C@@H]2CCC(=O)N2Cc2ccc(C)cc2)cc1	29.5%	21.9%	19.5%	
N=C(NCc1ccccc1)[C@@H]1CCC(=O)N1Cc1ccccc1	20.7%	27.9%	16.6%	
N=C(NCc1ccc(O)cc1)[C@@H]1CCC(=O)N1Cc1ccc([N+](=O)[O-])cc1	34.5%	31.3%	25.9%	
N=C(NCc1ccccc1)[C@@H]1CCC(=O)N1Cc1ccc(F)cc1	31.4%	23.3%	13.3%	
COc1ccc(CNC(=N)[C@@H]2CCC(=O)N2Cc2ccc(F)cc2)cc1	38.1%	36.7%	15.8%	
N=C(NCc1ccccc1)[C@@H]1CCC(=O)N1Cc1ccc([N+](=O)[O-])cc1	25.6%	24%	13.7%	
COc1ccc(CNC(=N)[C@@H]2CCC(=O)N2Cc2ccc(OC)cc2)cc1	33.6%	24.8%	24.2%	
Cl.N=C(NCc1ccc(O)cc1)[C@@H]1CCC(=O)N1Cc1ccc(F)cc1	48.6%	42%	35.2%	Activity [4]: Active; Activity [5]: Active; Activity [6]: Active; CLint [7]: < 9.6 µL/min/mg; Activity [8]: Active; Activity [9]: Active; Activity [10]: Active; Activity [11]: Active; Activity [12]: Active; Activity [13]: Active; Activity [14]: Active; inhibition [15]: Active; Activity [16]: Active; Activity [17]: Active; inhibition [18]: Active; half-life at 10 µM [19]: > 2.42 h; remaining at 1 h, 10 µM [20]: 92.7%; Activity [21]: inactive
C[C@@H]([C@@H](O)c1ccc(O)cc1)N1CCC(Cc2ccccc2)CC1 [(S)-IFENPRODIL]	41%	40.4%	29.4%	inhibition [15]: Active
N=C(NCc1ccc(O)cc1)[C@@H]1CCC(=O)N1Cc1ccccc1[N+](=O)[O-]	30.4%	26.9%	20%	
Cc1ccc(CN2C(=O)CC[C@H]2C(=N)NCc2ccccc2)cc1	24.8%	23.5%	17.1%	
Cc1ccc(CN2C(=O)CC[C@H]2C(=N)NCc2ccc(O)cc2)cc1	23.8%	21.9%	20.5%	
COc1ccc(CN2C(=O)CC[C@H]2C(=N)NCc2ccc(O)cc2)cc1	26.6%	20.5%	16%	
N=C(NCc1ccccc1)[C@@H]1CCC(=O)N1Cc1ccccc1[N+](=O)[O-]	25.3%	28.8%	10.1%	
COc1ccc(CN2C(=O)CC[C@H]2C(=N)NCc2ccccc2)cc1	17.9%	21%	12.3%	
COc1ccc(CNC(=N)[C@@H]2CCC(=O)N2Cc2ccccc2)cc1	19.5%	23.6%	7.1%	
COc1ccc(CNC(=N)[C@@H]2CCC(=O)N2Cc2ccccc2[N+](=O)[O-])cc1	25.4%	21.1%	18.1%	
